Measurements: patent US5190921A, “Amino acids and peptides having a modified tyrosine residue, their preparation and their application as medicaments” (Institut National de la Sante et de la Recherche Medicale …, priority 1988, dated 1993)
*1 amine or outer side, *2 acyl side, *3 side chain or, on linkers, in order; H or OH if unused. Where a SMILES comes first, the peptide text is derived from it. [ ]: non-standard residue; d: D form. The star is where a group is joined. X1 = CCCC[C@@H](NC(=O)CC(=O)*)NC(=O)[C@H](Cc1ccc(CS(=O)(=O)O)cc1)NC(C)=O; Phe(4-CH2SO3H) = N[C@@H](Cc1ccc(CS(=O)(=O)O)cc1)C(=O)O; X2 = O=C([C@@H](Cc1ccc(CS(=O)(=O)O)cc1)N[*:1])[*:2]; sY = N[C@@H](Cc1ccc(OS(=O)(=O)O)cc1)C(=O)O; NMeNle = CCCC[C@H](NC)C(=O)O; Nle = CCCC[C@H](N)C(=O)O; Boc = CC(C)(C)OC(=O)*

What was measured:
[1] = target: guinea pig pancreatic acini; experiment: Pancreatic amylase liberation test; format: cell-based; conditions: acini incubated 30 minutes at 37° C.; mean of three experiments in triplicate; read-out: Amylase secretion from guinea pig pancreatic acini, Agonist activity EC50
Procedure: Amylase secretion is measured after incubation of pancreatic acini for 30 minutes at 37° C. in the presence of the products under study, according to the experimental protocol described by Peikin et al., Am. J. Physiol., 235 (6), E 743-E 749, (1978). Amylase activity is determined using Phadebas reagent (Pharmacia), according to the method described by Ceska et al., Experientia, 25, 555 (1969). The values indicated in this table represent the mean of three separate experiments, each carried out in triplicate.

guinea pig ileum = experiment: Contraction-producing activity on guinea pig ileum; conditions: isolated ileum strips, Tyrode's solution, 37° C.; mean ± s.e.m. of three experiments; read-out: Contraction-producing activity on guinea pig ileum, Agonist activity EC50
Procedure: This test is carried out according to the method described by Hutchinson et al., Eur. J. Pharmacol., 69, 87 (1981). Strips from the terminal portion of the guinea pig ileum are rapidly sampled and fixed in the tank of an isometric gauge containing 25 cm^3 of Tyrode's solution. The solution is maintained at 37° C. while passing through it, bubble by bubble, a gas composed of 95% oxygen and 5% CO2. The compounds under study are tested in the conditions described by Ruiz-Gayo et al., Peptides, 6, 415, (1985).
The values indicated in this table represent the mean (± s.e.m.) of three separate experiments.

[2] = Enzymatic stability in crude rat brain membranes; format: in vitro ADME; conditions: enzymatic degradation in crude rat brain membranes; read-out: 1/2 life time
Procedure: The resistance of these analogs to enzymatic degradation was tested in crude rat brain membranes which contain at the same time aminopeptidasic, thiolproteasic and encephalinasic activity [Matsas et al. Febs. Lett. 175, 124 (1984); McDermott et al. Neurochem. Int. 5, 641 (1983)]. These compounds were tested according to the protocol previously described by Durieux et al. Neuropeptides 7, 1, (1986).

SMILES | EC50 [1] [nM] | EC50 (guinea pig ileum) [nM] | half-life [2] [h]
CCCC[C@H](NC(=O)[C@H](Cc1c[nH]c2ccccc12)NC(=O)CNC(=O)[C@H](CCCC)NC(=O)[C@@H](Cc1ccc(CS(=O)(=O)O)cc1)NC(C)=O)C(=O)N[C@@H](CC(=O)O)C(=O)N[C@@H](Cc1ccccc1)C(N)=O [Example 14, Ac-D-Phe(p-CH2 SO3 Na)-NLe-Gly-Trp-NLe-Asp-PheNH2] (Ac-[X2][Nle]GW[Nle]DF-NH2) | 1.6 | 18 | –
CCCC[C@H](NC(=O)[C@H](Cc1ccc(CS(=O)(=O)O)cc1)NC(C)=O)C(=O)NCC(=O)N[C@@H](Cc1c[nH]c2ccccc12)C(=O)N[C@@H](CCCC)C(=O)N[C@@H](CC(=O)O)C(=O)N[C@@H](Cc1ccccc1)C(N)=O [Example 13, Ac-L-Phe(p-CH2 SO3 Na)-NLe-Gly-Trp-NLe-Asp-PheNH2] (Ac-[Phe(4-CH2SO3H)][Nle]GW[Nle]DF-NH2) | 0.33 | 3.8 | –
CCCC[C@H](NC(=O)[C@H](Cc1ccc(OS(=O)(=O)O)cc1)NC(=O)OC(C)(C)C)C(=O)NCC(=O)N[C@@H](Cc1c[nH]c2ccccc12)C(=O)N(C)[C@@H](CCCC)C(=O)N[C@@H](CC(=O)O)C(=O)N[C@@H](Cc1ccccc1)C(N)=O [Example 16, Boc-Tyr(SO3 Na)-Nle-Gly-Trp-(N-Me)Nle-Asp(Na)-Phe-NH2] (Boc-[sY][Nle]GW[NMeNle]DF-NH2) | 377 | > 1000 | > 4.17
CSCC[C@H](NC(=O)[C@H](Cc1ccc(OS(=O)(=O)O)cc1)NC(=O)[C@@H](N)CC(=O)O)C(=O)NCC(=O)N[C@@H](Cc1c[nH]c2ccccc12)C(=O)N[C@@H](CCSC)C(=O)N[C@@H](CC(=O)O)C(=O)N[C@@H](Cc1ccccc1)C(N)=O [CCK8, Asp-Tyr(SO3 H)-Met-Gly-Trp-Met-Asp-Phe-NH2, reference compound] | – | – | 0.75
CCCC[C@@H](NC(=O)CC(=O)N[C@@H](Cc1c[nH]c2ccccc12)C(=O)N(C)[C@@H](CCCC)C(=O)N[C@@H](CC(=O)O)C(=O)N[C@@H](Cc1ccccc1)C(N)=O)NC(=O)[C@H](Cc1ccc(OS(=O)(=O)O)cc1)NC(=O)OC(C)(C)C [Example 15, Boc-Tyr(SO3 Na)-gNle-mGly-Trp-(N-Me)Nle-Asp(Na)-Phe-NH2] | 0.35 | 1 | > 3
CCCC[C@@H](NC(=O)CC(=O)N[C@@H](Cc1c[nH]c2ccccc12)C(=O)N(C)[C@@H](CCCC)C(=O)N[C@@H](CC(=O)O)C(=O)N[C@@H](Cc1ccccc1)C(N)=O)NC(=O)[C@H](Cc1ccc(CS(=O)(=O)O)cc1)NC(C)=O [Example 18, Ac-L-Phe(p-CH2 SO3 Na)-gNle-mGly-Trp-(N-Me)Nle-Asp-Phe-NH2] (X1-W[NMeNle]DF-NH2) | 642 | > 1000 | > 4.17
